# Target: T1, human LPA1 (Homo sapiens, UniProt Q92633)
# T1 construct: expressed in transfected cells; host or cells: Chinese hamster ovary (CHO) cells
# Test: LPA1 functional antagonist assay (LPA-induced calcium flux)
# Type: cell-based
# Details: CHO cells overexpressing human LPA1; inhibition of calcium flux induced by 10 nM LPA; read-out: hLPA1 IC50
# Experimental: The effectiveness of compounds of the present invention as LPA1 inhibitors can be determined in an LPA1 functional antagonist assay as follows:
# Chinese hamster ovary cells overexpressing human LPA1 were plated overnight (15,000 cells/well) in poly-D-lysine coated 384-well microplates (Greiner bio-one, Cat #781946) in DMEM/F12 medium (Gibco, Cat #11039). Following overnight culture, cells were loaded with calcium indicator dye (AAT Bioquest Inc, Cat #34601) for 30 minutes at 37° C. The cells were then equilibrated to room temperature for 30 minutes before the assay. Test compounds solubilized in DMSO were transferred to 384 well non-binding surface plates (Corning, Cat #3575) using the Labcyte Echo acoustic dispense and diluted with assay buffer [1×HBSS with calcium/magnesium (Gibco Cat #14025-092), 20 mM HEPES (Gibco Cat #15630-080) and 0.1% fatty acid free BSA (Sigma Cat #A9205)] to a final concentration of 0.5% DMSO. Diluted compounds were added to the cells by FDSS6000 (Hamamatsu) at final concentrations ranging from 0.08 nM to 5 μM. and were then incubated for 20 min at room temperature at which time LPA (Avanti Polar Lipids Cat #857130C) was added at final concentrations of 10 nM to stimulate the cells. The compound IC50 value was defined as the concentration of test compound which inhibited 50% of the calcium flux induced by LPA alone. IC50 values were determined by fitting data to a 4-parameter logistic equation (GraphPad Prism, San Diego CA).
# T1 sequence (Q92633 whole entry): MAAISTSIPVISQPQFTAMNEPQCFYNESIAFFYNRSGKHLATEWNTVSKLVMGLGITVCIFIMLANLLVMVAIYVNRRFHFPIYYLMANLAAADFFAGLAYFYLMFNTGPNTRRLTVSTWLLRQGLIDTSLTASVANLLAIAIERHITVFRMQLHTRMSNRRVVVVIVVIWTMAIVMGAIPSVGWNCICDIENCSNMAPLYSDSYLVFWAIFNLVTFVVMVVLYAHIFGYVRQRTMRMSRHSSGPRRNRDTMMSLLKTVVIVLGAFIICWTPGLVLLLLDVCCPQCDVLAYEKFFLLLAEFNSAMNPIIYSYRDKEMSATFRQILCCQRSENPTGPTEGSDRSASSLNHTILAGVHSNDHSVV
row,SMILES,IC50
1,"Cc1nc(-c2nnn(C)c2CNc2nccc(C(C)C)n2)ccc1OC[C@@H]1CC[C@H](C(=O)O)C1 (relative stereo) [Example 39, cis-3-(((6-(5-(((4-isopropylpyrimidin-2-yl)amino)methyl)-1-methyl-1H-1,2,3-triazol-4-yl)-2-methylpyridin-3-yl)oxy)methyl)cyclopentane-1-carboxylic acid]",164 nM
2,"Cc1noc(-c2ccc(O[C@H]3CC[C@@H](C(=O)O)C3)cc2)c1COC(=O)N(C)CCC(C)C (racemic) [Example 73, (±)-cis-3-{4-[3-methyl-4-({[methyl(3-methylbutyl)carbamoyl]oxy}methyl)-1,2-oxazol-5-yl]phenoxy}cyclo-pentane-1-carboxylic acid]",1180 nM
3,"CN(C(=O)OCc1c(-c2ccc(O[C@H]3CC[C@@H](C(=O)O)C3)cc2)nnn1C)C1CCCC1 (relative stereo) [Example 11, Cis-3-(4-(5-(((cyclopentyl(methyl)carbamoyl)oxy)methyl)-1-methyl-1H-1,2,3-triazol-4-yl)phenoxy)cyclo-pentane-1-carboxylic acid]",386 nM
4,"Cc1noc(-c2ccc(O[C@H]3CC[C@@H](C(=O)O)C3)cc2)c1NC(=O)O[C@H](C)c1ccccc1 (single isomer, unassigned) [Example 1]",104 nM
5,"CCCCN(C)C(=O)OCc1c(-c2ccc(O[C@@H]3CC[C@@H](CC(=O)O)C3)c(CC)n2)nnn1C (racemic) [Example 86, (±)-2-((trans)-3-((6-(5-(((butyl(methyl)carbamoyl)oxy)methyl)-1-methyl-1H-1,2,3-triazol-4-yl)-2-ethylpyridin-3-yl)oxy)cyclopentyl)acetic acid]",48 nM
6,"Cc1nc(-c2nnn(C)c2CNC(=O)OCc2ccccc2)cnc1O[C@@H]1CC[C@@H](C(=O)O)C1 (racemic) [Example 15, (±)-Trans-3-((5-(5-((((benzyloxy)carbonyl)amino)methyl)-1-methyl-1H-1,2,3-triazol-4-yl)-3-methylpyrazin-2-yl)oxy)cyclopentanecarboxylic Acid]",714 nM
7,"Cc1nc(-c2onc(C)c2COC(=O)N(C)C2CCCC2)ccc1O[C@H]1CC[C@H](C(C)(C)C(=O)O)C1 (racemic) [Example 52, (±)-trans-2-[3-({6-[4-({[cyclopentyl(methyl)carbamoyl]oxy}methyl)-3-methyl-1,2-oxazol-5-yl]-2-methyl-pyridin-3-yl}oxy)cyclopentyl]-2-methylpropanoic acid]",8 nM
8,"CCC1(COC(=O)NCc2c(-c3ccc(O[C@H]4CC[C@H](CC(=O)O)C4)c(C)n3)nnn2C)CC1 (racemic) [Example 60, (±)-trans-2-[3-[(6-{5-[({[(1-ethyl-cyclopropyl)methoxy]carbonyl}amino)methyl]-1-methyl-1H-1,2,3-triazol-4-yl}-2-methylpyridin-3-yl)oxy]cyclopentyl]acetic acid]",264 nM
9,"CCCCN(C)C(=O)OCc1c(-c2ccc(O[C@H]3CC[C@H](CC(=O)O)C3)c(C)n2)nnn1C (single isomer, unassigned) [Example 4, (±)-Trans-2-(3-((6-(5-(((butyl(methyl)carbamoyl)oxy)methyl)-1-methyl-1H-1,2,3-triazol-4-yl)-2-methylpyridin-3-yl)oxy)cyclopentyl)acetic Acid]",15 nM
10,"Cc1nc(-c2cnn(C)c2COC(=O)N(C)CC2CCC2)cnc1O[C@H]1CC[C@H](C(=O)O)C1 (racemic) [Example 16, (±)-Trans-3-((5-(5-((((cyclobutylmethyl)(methyl)carbamoyl)oxy)methyl)-1-methyl-1H-pyrazol-4-yl)-3-methylpyrazin-2-yl)oxy)cyclopentanecarboxylic Acid]",202 nM
11,"CCCC1(COC(=O)NCc2c(-c3ccc(O[C@@H]4CC[C@@H](CC(=O)O)C4)c(C)n3)nnn2C)CC1 (racemic) [Example 9, (±)-Trans-2-(3-((2-methyl-6-(1-methyl-5-(((((1-propylcyclopropyl)methoxy)carbonyl)amino)methyl)-1H-1,2,3-triazol-4-yl)pyridin-3-yl)oxy)cyclopentyl)acetic Acid]",111 nM
